In ChEMBL document CHEMBL4622857, “Is GPR146 really the receptor for proinsulin C-peptide?” (Bioorg Med Chem Lett, 2020):
Activity calls are given as the source filed them. The calls are words filed in the database; no cut-off is given here.

Tests used:
[1] = molecular target: G-protein coupled receptor 146 (Homo sapiens) (UniProt Q96CH1); experiment: Activation of human GPR146 receptor expressed in HK2 cells assessed as increase in dynamic mass redistribution response by DMR assay; type: cell-based
Sequence of G-protein coupled receptor 146 (Homo sapiens) (Q96CH1 whole entry): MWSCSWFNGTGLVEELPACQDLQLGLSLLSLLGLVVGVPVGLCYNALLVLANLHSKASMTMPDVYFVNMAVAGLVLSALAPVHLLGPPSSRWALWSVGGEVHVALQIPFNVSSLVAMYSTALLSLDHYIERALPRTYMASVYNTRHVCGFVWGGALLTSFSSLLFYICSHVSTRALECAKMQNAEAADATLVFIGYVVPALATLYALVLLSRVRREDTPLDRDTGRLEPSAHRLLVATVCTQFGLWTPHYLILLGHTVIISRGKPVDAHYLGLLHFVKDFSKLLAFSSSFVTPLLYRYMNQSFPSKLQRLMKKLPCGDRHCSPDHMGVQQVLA

[2] = molecular target: G-protein coupled receptor 146 (Homo sapiens) (UniProt Q96CH1); experiment: Activation of human GPR146 receptor expressed in HEK293 cells assessed as increase in dynamic mass redistribution response by DMR assay; type: cell-based
[3] = molecular target: G-protein coupled receptor 146 (Homo sapiens) (UniProt Q96CH1); experiment: Activation of human GPR146 expressed in CHO-K1 cells assessed as increase in dynamic mass redistribution response at 100 uM by DMR assay; type: cell-based
[4] = molecular target: Glucagon-like peptide 1 receptor (Homo sapiens) (UniProt P43220); experiment: Activation of human GLP1R expressed in CHO-K1 cells assessed as increase in dynamic mass redistribution response at 100 uM by DMR assay; type: cell-based
Sequence of Glucagon-like peptide 1 receptor (Homo sapiens) (P43220 whole entry): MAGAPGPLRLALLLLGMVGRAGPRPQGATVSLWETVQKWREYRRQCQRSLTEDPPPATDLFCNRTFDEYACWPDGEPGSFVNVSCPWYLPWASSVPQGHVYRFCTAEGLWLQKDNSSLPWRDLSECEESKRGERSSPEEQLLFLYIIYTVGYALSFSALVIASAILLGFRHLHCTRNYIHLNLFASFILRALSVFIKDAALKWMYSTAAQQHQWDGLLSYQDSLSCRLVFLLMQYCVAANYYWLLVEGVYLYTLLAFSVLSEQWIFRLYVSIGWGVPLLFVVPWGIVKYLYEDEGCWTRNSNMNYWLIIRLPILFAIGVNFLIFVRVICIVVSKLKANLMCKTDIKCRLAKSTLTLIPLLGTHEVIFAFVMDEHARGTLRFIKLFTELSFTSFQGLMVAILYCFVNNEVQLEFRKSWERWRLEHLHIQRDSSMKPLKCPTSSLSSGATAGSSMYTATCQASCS

[5] = molecular target: G-protein coupled receptor 146 (Homo sapiens) (UniProt Q96CH1); experiment: Activation of human GPR146 expressed in HEK293 cells assessed as increase in dynamic mass redistribution response up to 100 uM by DMR assay; type: cell-based
[6] = molecular target: G-protein coupled receptor 146 (Homo sapiens) (UniProt Q96CH1); experiment: Activation of human GPR146 expressed in HK2 cells assessed as increase in dynamic mass redistribution response up to 100 uM by DMR assay; type: cell-based
[7] = molecular target: G-protein coupled receptor 146 (Homo sapiens) (UniProt Q96CH1); experiment: Agonist activity at human GPR146 receptor expressed in HEK293 cells assessed as recruitment of beta-arrestin up to 100 uM by PathHunter assay; type: cell-based
[8] = Drug uptake in human HK2 cells at 0.1 to 0.5 uM using Cy3-labeled compound by fluorescence microscopy; type: ADME, cell-based; conditions: hk-2, 0.5 µM
[9] = Drug uptake in CHOK1 cells at 0.1 to 0.5 uM by using Cy3-labeled compound by fluorescence microsocpy; type: ADME, cell-based, Cricetulus griseus; conditions: chinese hamster, cho-k1, 0.5 µM
[10] = Drug uptake in CHOK1 cells expressing human GPR146 at 0.1 to 0.5 uM by using Cy3-labeled compound by fluorescence microsocpy; type: ADME, cell-based, Cricetulus griseus; conditions: chinese hamster, cho-k1, 0.5 µM
[11] = molecular target: G-protein coupled receptor 146 (Homo sapiens) (UniProt Q96CH1); experiment: Activation of human GPR146 expressed in CHO-K1 cells assessed as increase in dynamic mass redistribution response upto 100 uM by DMR assay; type: cell-based
[12] = molecular target: Glucagon-like peptide 1 receptor (Homo sapiens) (UniProt P43220); experiment: Activation of human GLP1R expressed in CHO-K1 cells assessed as increase in dynamic mass redistribution response upto 100 uM by DMR assay; type: cell-based

Molecule | Activity [1] | Activity [2] | Activity [3] | Activity [4] | Activity [5] | Activity [6] | Activity [7] | Drug uptake [8] | Drug uptake [9] | Drug uptake [10] | Activity [11] | Activity [12]
C[N+](C)(C)CCOC(N)=O | Active | Active |  |  |  |  |  |  |  |  |  | 
CC(C)C[C@H](NC(=O)[C@H](C)NC(=O)[C@H](CC(C)C)NC(=O)[C@@H]1CCCN1C(=O)[C@H](CCC(N)=O)NC(=O)[C@H](CC(C)C)NC(=O)[C@H](CO)NC(=O)CNC(=O)[C@H](C)NC(=O)CNC(=O)[C@@H]1CCCN1C(=O)CNC(=O)CNC(=O)CNC(=O)[C@H](CC(C)C)NC(=O)[C@H](CCC(=O)O)NC(=O)[C@@H](NC(=O)[C@H](CCC(N)=O)NC(=O)CNC(=O)[C@@H](NC(=O)[C@H](CCC(N)=O)NC(=O)[C@H](CC(C)C)NC(=O)[C@H](CC(=O)O)NC(=O)[C@H](CCC(=O)O)NC(=O)[C@H](C)NC(=O)[C@@H](N)CCC(=O)O)C(C)C)C(C)C)C(=O)N[C@@H](CCC(=O)O)C(=O)NCC(=O)N[C@@H](CO)C(=O)N[C@@H](CC(C)C)C(=O)N[C@@H](CCC(N)=O)C(=O)O [HUMAN C-PEPTIDE] |  |  | Active | inactive | inactive | inactive | inactive | Not Active | Not Active | Not Active |  | 
H-EGSLQ-OH |  |  |  |  | inactive | inactive | inactive | Not Active | Not Active | Not Active | Active | Active
H-EVARQ-OH |  |  | Active |  |  | inactive | inactive | Not Active | Not Active | Not Active |  | Active
H-EVEDPQVEQLELGGSPGDLQTLALEVARQ-OH |  |  |  |  | inactive | inactive | inactive | Not Active | Not Active | Not Active | Active | Active
H-GADQPVGSEQQVQAGGLEGGLLLGLELPSEA-OH |  |  |  |  | inactive | inactive | inactive | Not Active | Not Active | Not Active | Active | Active
